Measurements from PubChem BioAssay (NCI).
Where “and” joins values, the source holds several entries; their conditions need not be identical. Identical values can stand only once.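 Cells were grown in 96-well plates and exposed to each compound for 48 hours at five concentrations; endpoints were interpolated linearly between bracketing concentrations, or set to the highest concentration if not reached. Here, GI50 denotes the concentration required for 50% inhibition of growth. At the TGI there is no net growth.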

How the values were obtained:
Assay in all cases: NCI tumour cell line growth inhibition, 48 h
[1] = test system: T-47D breast
[2] = test system: NCI-H23 lung
[3] = test system: BT-549 breast
[4] = test system: SK-MEL-28 melanoma
[5] = test system: OVCAR-5 ovarian
[6] = test system: SF-268 CNS
[7] = test system: SF-539 CNS
[8] = test system: CCRF-CEM leukemia
[9] = test system: TK-10 renal
[10] = test system: SK-OV-3 ovarian

Compound	GI50 [1]	TGI [1]	GI50 [2]	TGI [2]	GI50 [3]	TGI [3]	GI50 [4]	TGI [4]	GI50 [5]	TGI [5]	GI50 [6]	TGI [6]	GI50 [7]	TGI [7]	GI50 [8]	TGI [8]	GI50 [9]	TGI [9]	GI50 [10]	TGI [10]
COC1=C(OC)C(=O)C(CCCCCCCCCCO)=C(C)C1=O	2.44 µM	7.43 µM	3.17 µM	16.6 µM	12.7 µM	25.9 µM	13.5 µM	26.5 µM	10.7 µM	25.5 µM	9.61 µM	30.7 µM	7.49 µM	20.3 µM	3.15 µM	20.4 µM	16.6 µM	30.6 µM	15.7 µM	29.2 µM
CSC1=Nc2c(c(C)c(-c3ccccc3)n2COC(CO)CO)C2=NC(=O)CN12	> 100 µM	> 100 µM	> 100 µM	> 100 µM	> 100 µM	> 100 µM	> 100 µM	> 100 µM	> 100 µM	> 100 µM	> 100 µM	> 100 µM	> 100 µM	> 100 µM	> 100 µM	> 100 µM	> 100 µM	> 100 µM	> 100 µM	> 100 µM
c1ccc(C2CCCCC2)c(OCCCCCN2CCNCC2)c1	1.92 µM	5.16 µM	5.72 µM	22.2 µM	7.38 µM	37.9 µM	1.81 µM	3.57 µM	3.46 µM	13 µM	5.14 µM	21.4 µM	3.65 µM	18.1 µM	2.4 µM	7.9 µM	5.67 µM	19.3 µM	6.51 µM	21.8 µM
CN1C(=NCCO)NS(=O)(=O)c2ccccc21		> 100 µM		> 100 µM		> 100 µM		> 100 µM		> 100 µM		> 100 µM		> 100 µM		> 100 µM		> 100 µM		> 100 µM
Cn1c(C(=O)c2cccc3ccccc23)nc2ccccc21	22 µM	> 100 µM	> 100 µM	> 100 µM	> 100 µM	> 100 µM	> 100 µM	> 100 µM	> 100 µM	> 100 µM	> 100 µM	> 100 µM	> 100 µM	> 100 µM	> 100 µM	> 100 µM	> 100 µM	> 100 µM	> 100 µM	> 100 µM
COc1ccc(C2CC(c3ccc(N(C)C)cc3)=NN2c2ccc(S(N)(=O)=O)cc2)cc1 (stereo not given)	4.51 µM	> 100 µM	3.13 µM	> 100 µM	2.99 µM	8.7 µM	4.81 µM	93.8 µM	6.57 µM	> 100 µM	5.76 µM	> 100 µM	4.32 µM	56.1 µM	5.24 µM	> 100 µM	4.32 µM	35 µM	4.38 µM	> 100 µM
CN(C)c1nc(N)c(C#N)c(C#N)c1C#N		> 10 µM		> 10 µM		> 10 µM		> 10 µM		> 10 µM		> 10 µM		> 10 µM		> 10 µM		> 10 µM		> 10 µM
CC1(C)[C@H](O)[C@H](F)C[C@@]2(C)Oc3ccc(C(=O)Nc4ccc5c(c4)NC(=O)C54CCN(CCCCC#N)CC4)cc3C[C@H]12	3.76 µM and 2.49 µM	26.1 µM	2.44 µM and 2.29 µM	17.8 µM	0.0186 µM	6.31 µM and 8.37 µM	1.25 µM and 1.2 µM	3.61 µM and 3.43 µM	5.41 µM and 5.82 µM	34.5 µM	0.413 µM and 0.4 µM	10.1 µM	0.00698 µM	4.77 µM and 2.5 µM	0.00949 µM	5.98 µM and 6.98 µM	3.44 µM	14.7 µM	2.1 µM and 0.341 µM	3.54 µM
Nc1nc(-c2ccc(Cl)cc2)nc2c1sc(=S)n2-c1ccccc1	2.13 µM	5.54 µM	4.05 µM	18.2 µM	6.5 µM	> 100 µM	5.22 µM	> 100 µM	4.98 µM	20.5 µM	3.75 µM	20.2 µM	1.62 µM	3.29 µM	27 µM	> 100 µM	2.22 µM	5.9 µM	3.83 µM	14.5 µM
Cc1ccc(Cl)cc1-n1c(C)nc2c(cnn2-c2ccnc3c(C(F)(F)F)cccc23)c1=O	> 100 µM	> 100 µM	> 100 µM	> 100 µM	> 100 µM	> 100 µM	> 100 µM	> 100 µM	> 100 µM	> 100 µM	> 100 µM	> 100 µM	> 100 µM	> 100 µM	> 100 µM	> 100 µM	> 100 µM	> 100 µM	> 100 µM	> 100 µM
COc1cc(-c2ncn(/C=C\c3nnco3)n2)cc(C(F)(F)F)c1	0.571 µM	> 59.9 µM	0.132 µM	> 64.8 µM	0.125 µM	14.3 µM	0.125 µM	> 34.6 µM	1.78 µM	> 100 µM	0.0891 µM	23.9 µM	0.0295 µM	0.581 µM	0.194 µM	> 100 µM	0.726 µM	23 µM	0.979 µM	> 100 µM
C=CCN(CC=C)C(=O)[C@H](CC)[C@@H]1CC[C@@H](C)[C@@H]([C@H](C)[C@@H](O)[C@@H](C)C(=O)[C@H](CC)C2O[C@]3(C=C[C@@H](O)[C@]4(CC[C@@](C)([C@H]5CC[C@](O)(CC)[C@H](C)O5)O4)O3)[C@H](C)C[C@@H]2C)O1 (stereo not given in full)	2.37 µM	13.5 µM	2.48 µM	6.93 µM	3.03 µM	12.3 µM	4.45 µM	21.6 µM	2.25 µM	7.26 µM	3.27 µM	34.8 µM	1.97 µM	3.91 µM	3.19 µM	11.5 µM	3.65 µM	> 100 µM	3.51 µM	> 100 µM
